From ChEMBL document CHEMBL1932938, “From COX-2 inhibitor nimesulide to potent anti-cancer agent: synthesis, in vitro, in vivo and pharmacokinetic evaluation” (Eur J Med Chem, 2012)

Legend:
SK-BR-3 = test: cells; details: Homo sapiens, SK-BR-3, 48 h
[1] = Solubility of the compound; type: physicochemical

Row | IC50 (SK-BR-3) | solubility [1] | SMILES
1 | 34 µM |  | COc1ccc(CC(=O)Nc2ccc(N(C)S(C)(=O)=O)c(OCc3cc(C)ccc3C)c2)cc1OC
2 | > 100 µM |  | Cc1ccc(C)c(COc2cc(NC(=O)Cc3ccccc3)ccc2N(C)S(C)(=O)=O)c1
3 |  | Insoluble | CCCCCCCCCCCCCCCC(=O)Nc1ccc(N(C)S(C)(=O)=O)c(OCc2cc(C)ccc2C)c1
